Earlier results as cited in patent US5798310A, “Glyphosate compositions and their use” (Monsanto Europe S.A., priority 1995, dated 1998).

Settings: literature

| SMILES | effect on herbicidal activity of glyphosate |
| --- | --- |
| N.N.O=S(=O)(O)O [ammonium sulphate] | further enhance the herbicidal activity |
| N#CS [ammonium thiocyanate] | further enhance the herbicidal activity |
